Source: the NIST ThermoML archive (doi:10.1021/je800188a)

Assay: mean ionic activity coefficient (dimensionless); mn = molality of the nth substance listed, in mol/kg
Conditions: 298.15 K, 101 kPa, Liquid

[Cl-].[Na+] [sodium chloride] + O
Conditions	mean ionic activity coefficient
m1 = 0.2	0.734
m1 = 0.4	0.694
m1 = 0.6	0.676
m1 = 0.8	0.666
m1 = 1	0.662
m1 = 1.2	0.66
m1 = 1.4	0.662
m1 = 1.6	0.665
m1 = 1.8	0.669
m1 = 2	0.675
m1 = 2.2	0.682
m1 = 2.4	0.69
m1 = 2.6	0.699
m1 = 2.8	0.709
m1 = 3	0.72
m1 = 3.2	0.732
m1 = 3.4	0.744
m1 = 3.6	0.758
m1 = 3.8	0.772
m1 = 4	0.787
m1 = 4.2	0.803
m1 = 4.4	0.82
m1 = 4.6	0.838
m1 = 4.8	0.857
m1 = 5	0.877
m1 = 5.2	0.898
m1 = 5.4	0.92
m1 = 5.6	0.943
m1 = 5.8	0.968
m1 = 6	0.993
m1 = 6.144	1.01

[Cl-].[K+] [potassium chloride] + O
Conditions	mean ionic activity coefficient
m1 = 0.2	0.719
m1 = 0.4	0.669
m1 = 0.6	0.641
m1 = 0.8	0.623
m1 = 1	0.61
m1 = 1.2	0.601
m1 = 1.4	0.593
m1 = 1.6	0.588
m1 = 1.8	0.584
m1 = 2	0.58
m1 = 2.2	0.578
m1 = 2.4	0.576
m1 = 2.6	0.575
m1 = 2.8	0.575
m1 = 3	0.575
m1 = 3.2	0.576
m1 = 3.4	0.576
m1 = 3.6	0.578
m1 = 3.8	0.58
m1 = 4	0.582
m1 = 4.2	0.584
m1 = 4.4	0.587
m1 = 4.6	0.59
m1 = 4.8	0.593
m1 = 4.803	0.593
